# Results published in patent US20220177508A1, “C10-Cyclic Substituted 13-Membered Macrolides and Uses Thereof” (Zikani Therapeutics, Inc., priority 2018, published 2022).
# Read-outs that look alike come from different tables or passages of the source.
# Tests used:
# [1] = ester bond, chlorobenzene
# S. aureus MP-12 = assay: Broth dilution MIC determination (CLSI), S. aureus MP-12; type: cell-based; conditions: strain MP-12, broth dilution
# P. aeruginosa MP-3 = assay: Broth dilution MIC determination (CLSI), P. aeruginosa MP-3; type: cell-based; conditions: strain MP-3, broth dilution
# K. pneumoniae MP-648 = assay: Broth dilution MIC determination (CLSI), K. pneumoniae MP-648; type: cell-based; conditions: strain MP-648, broth dilution
# A. baumannii MP-15 = assay: Broth dilution MIC determination (CLSI), A. baumannii MP-15; type: cell-based; conditions: strain MP-15, broth dilution
# K. pneumoniae MP-546 = assay: Broth dilution MIC determination (CLSI), K. pneumoniae MP-546; type: cell-based; conditions: strain MP-546, broth dilution
# E. coli MP-4 = assay: Broth dilution MIC determination (CLSI), E. coli MP-4; type: cell-based; conditions: strain MP-4, broth dilution
compound,measurement,setting,value
CO[C@]1(C)C[C@@H](C)CN(C(=O)OCc2ccccc2)[C@H](C2CCN(C(=O)OC(C)(C)C)CC2)COC(=O)[C@H](C)C(=O)[C@H](C)[C@H]1O[C@@H]1O[C@H](C)C[C@H](N(C)C)[C@H]1OC(=O)c1ccccc1,"ring closure, yield of all isomers","[1]; from CO[C@](C)(C[C@@H](C)CN(C(=O)OCc1ccccc1)[C@@H](CO)C1CCN(C(=O)OC(C)(C)C)CC1)[C@H](O[C@@H]1O[C@H](C)C[C@H](N(C)C)[C@H]1OC(=O)c1ccccc1)[C@@H](C)C1=C(C)C(=O)OC(C)(C)O1, 3.15 mM, 148.0 °C, 23.0 h",29%
CO[C@]1(C)C[C@@H](C)CN(C)[C@H](c2ccc(Br)cc2)COC(=O)C(C)C(=O)[C@H](C)[C@H]1O[C@@H]1O[C@H](C)C[C@H](N(C)C)[C@H]1OC(=O)c1ccccc1 (some centres unmarked),"ring closure, yield of all isomers","[1]; from CO[C@](C)(C[C@@H](C)CN(C)[C@@H](CO)c1ccc(Br)cc1)[C@H](O[C@@H]1O[C@H](C)C[C@H](N(C)C)[C@H]1OC(=O)c1ccccc1)[C@@H](C)C1=C(C)C(=O)OC(C)(C)O1, 4.0 mM, 165.0 °C, 20.0 h",99%
"CO[C@]1(C)C[C@@H](C)CN(C)[C@H](C2CN(C(=O)CC(C)(C)CN(C)C)C2)COC(=O)C(C)(C)C(=O)[C@H](C)[C@H]1O[C@@H]1O[C@H](C)C[C@H](N(C)C)[C@H]1O [Compound 183, (3R,6R,8R,9R,10R)-3-(1-(4-(dimethylamino)-3,3-dimethylbutanoyl)azetidin-3-yl)-9-(((2S,3R,4S,6R)-4-(dimethylamino)-3-hydroxy-6-methyltetrahydro-2H-pyran-2-yl)oxy)-8-methoxy-4,6,8,10,12,12-hexamethyl-1-oxa-4-azacyclotridecane-11,13-dione]",MIC,"S. aureus MP-12; Staphylococcus aureus, MP12",4 to 32 mg/L
same,MIC,"P. aeruginosa MP-3; Pseudomonas aeruginosa, MP3",> 32 mg/L
same,MIC,"K. pneumoniae MP-648; Klebsiella pneumoniae, MP648",4 to 32 mg/L
same,MIC,"A. baumannii MP-15; Acinetobacter baumannii, MP15, read-out: MIC A. baumanii MP-15",> 32 mg/L
same,MIC,"K. pneumoniae MP-546; Klebsiella pneumoniae, MP546",4 to 32 mg/L
same,MIC,"E. coli MP-4; Escherichia coli, MP4, read-out: MIC E. coli MP-4",< 4 mg/L
"CO[C@]1(C)C[C@@H](C)CN(C)[C@H](C2CC(N(C)CC(C)C)C2)COC(=O)C(C)(C)C(=O)[C@H](C)[C@H]1O[C@@H]1O[C@H](C)C[C@H](N(C)C)[C@H]1O (stereo partly drawn) [Compound 187, (3R,6R,8R,9R,10R)-9-(((2S,3R,4S,6R)-4-(dimethylamino)-3-hydroxy-6-methyltetrahydro-2H-pyran-2-yl)oxy)-3-((1S,3S)-3-(isobutyl(methyl)amino)cyclobutyl)-8-methoxy-4,6,8,10,12,12-hexamethyl-1-oxa-4-azacyclotridecane-11,13-dione]",MIC S. aureus MP-12,S. aureus MP-12,+ (values greater than 32 mg/L)
same,MIC P aeruginosa MP-3,P. aeruginosa MP-3,+ (values greater than 32 mg/L)
same,MIC K. pneumoniae MP-648,K. pneumoniae MP-648,++ (values of greater than 4 mg/L and less than or equal to 32 mg/L)
same,MIC A. baumanii MP-15,A. baumannii MP-15,+ (values greater than 32 mg/L)
same,MIC K. pneumoniae MP-546,K. pneumoniae MP-546,+++ (values less than or equal to 4 mg/L)
same,MIC E. coli MP-4,E. coli MP-4,+++ (values less than or equal to 4 mg/L)
